Results on one compound are retold here after patent publication US20100093760A1, “METHODS FOR IDENTIFYING COMPOUNDS THAT MODULATE CELL SIGNALING AND METHODS EMPLOYING SUCH COMPOUNDS” (The General Hospital Corporation, priority 2006, published 2010).

One series addresses T1, caALK4 (Homo sapiens, UniProt P36896, T206D).
T1 construct: expressed in transfected cells; host or cells: murine PASMCs, transient transfection
The series can be described thus: Constitutively-active ALK4 PAI-1 promoter reporter (CAGA-Luc). It is filed as cell-based. Particulars: PASMCs, up to 20 μM. Here is the method: (§1) Murine PASMCs grown to 50% confluence in 6-well plates were transiently transfected with 0.3 μg Id1 promoter luciferase reporter construct (BRE-Luc, Dr. Peter ten Dijke, Leiden University Medical Center, Netherlands (Korchynskyi et al., J. Biol. Chem. 277:4883-4891, 2002)) in combination with 0.6 μg plasmids expressing constitutively-active forms of BMP type I receptors (caALK2, caALK3, or caALK6, kindly provided by Dr. Kohei Miyazono, University of Tokyo, Japan (Fujii et al., Mol. Biol. Cell 10:3801-3813, 1999)), using Fugene6 (Roche). To assess Activin and […] type I receptor function, PASMCs were transiently transfected with 0.3 μg PAI-1 promoter luciferase reporter construct (CAGA-Luc, Dr. Peter ten Dijke (Dennler et al., Embo J. 17:3091-3100, 1998)) in combination with 0.6 μg plasmids expressing constitutively active forms of type I receptors (caALK4, caALK5, and caALK7, also provided by Dr. Kohei Miyazono (Okadome et al., J. Biol. Chem. 271:21687-21690, 1996; Shimizu et al., Genes Cells 3:125-134, 1998)). For both reporters, 0.2 μg pRL-TK Renilla luciferase (Promega) was used to control for transfection efficiency. […] Cell extracts were harvested, and relative promoter activity quantitated by the ratio of firefly to Renilla luciferase activity using the dual luciferase assay kit (Promega). […] Hepcidin promoter activity was measured by luciferase assay as above.

The subject of series [1] is zebrafish embryos (eve1, pax2.1, krox20, MyoD). The series can be described thus: Wholemount zebrafish in situ hybridization of dorsal and ventral markers. It is filed as in vivo. Here is the method: In situ hybridization was performed as previously described (Westerfield, The Zebrafish Book, (University of Oregon Press, Eugene, Oreg., 1993)). Zebrafish krox20, pax2.1, and MyoD probes were produced as previously described (Weinberg et al., Development 122:271-280, 1996).

Series [2] relates to BMP-mediated SMAD1/5/8 phosphorylation. The series can be described thus: Immunoblot of BMP-induced SMAD1/5/8 phosphorylation in PASMCs. It is filed as cell-based, murine. The conditions noted are these: for IC50: Mus musculus, PASMC. As for the experimental part:
(§2) Wild-type and BMPR-II-deficient PASMC were isolated as previously described (Yu et al., J. Biol. Chem. 280:24443-24450, 2005), and cultured in RPMI medium (Invitrogen) supplemented with 10% FBS. C2C12 cells (American Type Culture Collection, Manassas, Va.) were cultured in DMEM supplemented with glutamine and 10% FBS. HepG2 cells and Hep3B cells (ATCC) were cultured in Minimal Essential Alpha Medium with L-glutamine (α-MEM, Invitrogen) containing 10% FBS. For studies of SMAD activation in vitro, PASMC were incubated in 0.5% FCS RPMI for 24 hours, followed by preincubation with drug compounds, noggin, or vehicle for 30 minutes, followed the addition of recombinant BMPs 2, 4, 6, or 7, or TGF-β1 or Activin A (R&D Systems, Minneapolis, Minn.) for 30 minutes.
(§3) Cell extracts or tissues were mechanically homogenized in SDS-lysis buffer (62.5 mM Tris-HCl (pH 6.8), 2% SDS, 10% glycerol, 50 mM DTT, 0.01% bromophenol blue); separated by SDS-PAGE; immunoblotted with anti-phospho-SMAD1/5/8, anti-phospho-SMAD2 (Cell Signaling, Beverly, Mass.), or anti-α-tubulin (Upstate/Millipore, Billerica, Mass.) Abs; and visualized using ECL Plus (GE Healthcare, Piscataway, N.J.). Levels of immunoreactive proteins were quantitated by ImageQuant software on a Storm phosphorimager (GE Healthcare).
The statistical significance of compared measurements was measured using the student's two-tailed T-test or one-way ANOVA with Bonferroni correction. Hill plot analysis of Compound C/Dorsomorphin inhibition of SMAD1/5/8 phosphorylation was performed using GraFit software (Erithacus Software, Surrey, England).
On the technique in general: Immunoblotting shows a protein as a band on a membrane.

A further series addresses AMP kinase. The conditions noted are these: Zhou et al. 2001; cited from earlier work.
The next series relates to zebrafish hepcidin mRNA. Nature of the series: Iron-dextran challenge: hepatic hepcidin mRNA in adult zebrafish. It is filed as in vivo. The conditions noted are these: 23 μg/g co-injected with iron-dextran, 3 hours.
In another series the test system is C2C12 cells. Nature of the series: C2C12 cell count (CyQuant). The conditions noted are these: 4 μM. It is filed as cell-based. Here is the method:
C2C12 cells were seeded into 96 well plates at 2000 cells per well in DMEM supplemented with 2% FBS. Wells were treated in quadruplicate with BMP ligands and Compound C/Dorsomorphin or vehicle. Cells were harvested after 5 days in culture with 50 μl Tris buffered saline/1% Triton X-100. Lysates were added to p-nitro-phenylphosphate reagent in 96-well plates (Sigma) for 1 hour, and alkaline phosphatase activity expressed as absorbance at 405 nm. Cell viability and quantity were measured by Cell-titer Glo (Promega) and binding of nuclear dye CyQuant (Invitrogen), respectively, using replicate wells treated identically to those used for alkaline phosphatase measurements.

Series [3] relates to TGF-β1-mediated activation of SMAD2. The series can be described thus: TGF-β1-mediated SMAD2 phosphorylation in PASMCs. It is filed as cell-based, murine. Here is the method: as §2, §3
The subject of the next series is caALK7. Nature of the series: Constitutively-active ALK7 PAI-1 promoter reporter (CAGA-Luc). It is filed as cell-based. Particulars: PASMCs, up to 20 μM. As for the experimental part:
as §1

[4] abbreviates: 6-somite stage, treatment at 1 hpf.

Entries after “also recorded” stand apart in the source; their conditions may differ. Like-named read-outs stand apart in the source and are kept apart here.

T1 sequence (P36896 24-505 T206D): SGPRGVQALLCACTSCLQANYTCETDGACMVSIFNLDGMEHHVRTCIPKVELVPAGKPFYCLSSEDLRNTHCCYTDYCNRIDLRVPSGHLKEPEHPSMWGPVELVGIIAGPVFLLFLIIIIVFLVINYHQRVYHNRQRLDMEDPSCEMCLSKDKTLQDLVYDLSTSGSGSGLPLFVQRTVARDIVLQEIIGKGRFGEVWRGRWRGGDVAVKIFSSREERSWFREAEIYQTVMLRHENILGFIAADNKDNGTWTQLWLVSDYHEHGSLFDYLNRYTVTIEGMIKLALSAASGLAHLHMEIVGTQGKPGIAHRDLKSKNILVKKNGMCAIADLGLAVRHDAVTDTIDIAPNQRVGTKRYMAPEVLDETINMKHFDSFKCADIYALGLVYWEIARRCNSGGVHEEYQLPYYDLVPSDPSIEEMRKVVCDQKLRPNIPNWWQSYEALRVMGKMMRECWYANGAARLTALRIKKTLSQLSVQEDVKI

In the case of `c1cc(-c2cnn3cc(-c4ccc(OCCN5CCCCC5)cc4)cnc23)ccn1` [Compound C/Dorsomorphin], the “effect on caALK4-mediated PAI-1 promoter activity (CAGA-Luc)” value on caALK4 was “did not inhibit; also recorded: not decreased”. Further, the “expression of Krox20 (rhombomeres 3 and 5) and MyoD” value in series [1] (setting [4]) was “induced lateral expansion; also recorded: expand laterally”. For the same compound, the “expression of dorsal marker pax2.1” value in series [1] (setting [4]) is reported as “induced expansion; also recorded: expands laterally”. In addition, the “expression of ventral marker eve1” value in series [1] (18-somite stage, 10 μM at 1 hpf) is “reduced; also recorded: do not exhibit eve1 expression in the distal tail”. Moreover, the IC50 in series [2] (FIG. 6, read-out: IC50, activation of SMADs 1, 5, and 8 by BMP4) is 500 nM; in series [2] (PASMCs, Hill plot, 0.1-50 μM, read-out: functional IC50, BMP4-stimulated SMAD1/5/8 phosphorylation) it was 470 nM; at AMP kinase, 15000 to 30000 nM. For the same compound, the “level of phosphorylated SMAD1/5/8 in cells not treated with BMP” value in series [2] (PASMCs, 4 μM) was “below basal levels”. The “effect on activation of SMAD1/5/8 by BMPs 2, 4, 6, and 7” value in series [2] (PASMCs, 4 μM, BMPs 10 ng/ml, 30 minutes) is on record as “blocking; also recorded: inhibited”. The “effect on BMP4-mediated SMAD1/5/8 phosphorylation” value in series [2] (PASMCs, BMP4 20 ng/ml, 0.2-40 μM pretreatment 30 minutes) is given as “inhibited activation of SMADs 1/5/8 dose dependently; also recorded: dose-dependent inhibition”. In addition, the “effect on iron-dextran-induced hepatic hepcidin mRNA” value in the series with zebrafish hepcidin mRNA is reported as “inhibited the increase; also recorded: not significantly different from dextran-treated fish”. In addition, in the series on C2C12 cells, the “effect on cell count / cell toxicity” value is reported as “not associated with cell toxicity; also recorded: no significant effects; also recorded: without cellular toxicity; also recorded: did not affect cell count”. Moreover, the “effect on the TGF-β signaling pathway” value in series [3] (FIG. 7) is given as “does not affect”. Further, in series [3] (PASMCs, TGF-β1 0.5 ng/ml, 0.1-20 μM, 30 minutes), the “effect on TGF-β1-mediated activation of SMAD2” value is “did not inhibit”. In the series with caALK7, the “effect on caALK7-mediated PAI-1 promoter activity (CAGA-Luc)” value is reported as “did not inhibit; also recorded: not decreased”.
